Experimental data taken from US20200171065A1, “METHOD FOR TREATING LIVER DISEASE WITH KINSENOSIDE” (HUAZHONG UNIVERSITY OF SCIENCE AND TECHNOLOGY, priority 2017, published 2020).
Read-outs that look alike come from different tables or passages of the source.

Test system: FVB/N mice with serine/threonine kinase (AKT) overexpressed in the liver (NAFL-NASH-liver fibrosis)
[1] = high, medium and low dose groups

Procedure: The serine/threonine kinase (AKT) and transposase plasmids were injected into the liver of the mice by a transposition system through hydrodynamics. The serine/threonine kinase was specifically overexpressed in the liver, and the mice except the control group were modeled. One week later, nonalcoholic fatty liver (NAFL) was formed; two weeks later, steatohepatitis (NASH) was formed; and four weeks later, a primary hepatic fibrosis model was established. In the formation of NAFL-NASH-liver fibrosis, the therapeutic effect of KD was observed.

SMILES: O=C1C[C@@H](O[C@@H]2O[C@H](CO)[C@@H](O)[C@H](O)[C@H]2O)CO1 [KD]
- IL-2 (NASH, KD 10 mg/kg): 101.31 ± 9.79^##Δ pg/mL
- IL-10 (NASH, KD 10 mg/kg): 66.84 ± 2.73 pg/mL
- IL-12 (NASH, KD 10 mg/kg): 127.64 ± 2.71 pg/mL
- NO (NASH, KD 10 mg/kg): 56.22 ± 5.32^ΔΔ μmol/L
- TNF-α (NASH, KD 10 mg/kg): 4.10 ± 0.04 pg/mL
- IFN-γ (NASH, KD 20 mg/kg): 33.86 ± 0.65 pg/mL
- IL-2 (NASH, KD 20 mg/kg): 133.29 ± 4.57 pg/mL
- IL-10 (NASH, KD 20 mg/kg): 84.12 ± 0.23^##ΔΔ pg/mL
- IL-12 (NASH, KD 20 mg/kg): 123.05 ± 0.71 pg/mL
- NO (NASH, KD 20 mg/kg): 51.38 ± 1.08^#ΔΔ μmol/L
- TNF-α (NASH, KD 20 mg/kg): 3.03 ± 0.26^##ΔΔ pg/mL
- IFN-γ (NASH, KD 30 mg/kg): 32.43 ± 0.98 pg/mL
- IL-2 (NASH, KD 30 mg/kg): 169.13 ± 13.10^##Δ pg/mL
- IL-10 (NASH, KD 30 mg/kg): 91.20 ± 0.56^##ΔΔ pg/mL
- IL-12 (NASH, KD 30 mg/kg): 106.38 ± 1.18^##Δ pg/mL
- NO (NASH, KD 30 mg/kg): 48.15 ± 1.86^##ΔΔ μmol/L
- TNF-α (NASH, KD 30 mg/kg): 2.35 ± 0.10^##ΔΔ pg/mL
- serum ALT and AST (during development of liver fibrosis): decreased after KD treatment
- expression of MMP-13 in the liver (qPCR) [1]: promoted the expression of matrix metalloproteinase-13 (MMP-13)
- expression of α-SMA, Col I and TIMP-1 in the liver (qPCR) [1]: could effectively inhibit the expression
- release of inflammatory response marker NO [1]: inhibited the release of the inflammatory response marker NO
- secretion of IL-10 (Th2-type cells) [1]: promoted the secretion of the inflammatory cytokine IL-10
- secretion of inflammatory cytokines IFN-γ, TNF-α and IL-2 (Th1) [1]: reduced the secretion of the inflammatory cytokines IFN-γ, TNF-α and IL-2
- width of the inferior vena cava, left lobe thickness, right lobe obliquity and spleen thickness (ultrasound) (high, middle and low dose groups): can significantly reduce the width of the inferior vena cava, left lobe thickness, right lobe obliquity and spleen thickness
- IFN-γ (liver fibrosis, KD 10 mg/kg): 85.76 ± 8.25 pg/mL
- IL-2 (liver fibrosis, KD 10 mg/kg): 101.73 ± 0.70^##ΔΔ pg/mL
- IL-10 (liver fibrosis, KD 10 mg/kg): 128.28 ± 24.84 pg/mL
- IL-12 (liver fibrosis, KD 10 mg/kg): 253.62 ± 7.20 pg/mL
- NO (liver fibrosis, KD 10 mg/kg): 52.13 ± 1.40 µmol/L
- TNF-α (liver fibrosis, KD 10 mg/kg): 13.46 ± 9.31^ΔΔ pg/mL
- IFN-γ (liver fibrosis, KD 20 mg/kg): 57.19 ± 1.65^##ΔΔ pg/mL
- IL-2 (liver fibrosis, KD 20 mg/kg): 104.72 ± 0.71^##ΔΔ pg/mL
- IL-10 (liver fibrosis, KD 20 mg/kg): 206.66 ± 1.91^##ΔΔ pg/mL
- IL-12 (liver fibrosis, KD 20 mg/kg): 174.77 ± 2.72 pg/mL
- NO (liver fibrosis, KD 20 mg/kg): 54.11 ± 15.40 µmol/L
- TNF-α (liver fibrosis, KD 20 mg/kg): 8.41 ± 0.52 pg/mL
- IFN-γ (liver fibrosis, KD 30 mg/kg): 53.38 ± 1.65^##ΔΔ pg/mL
- IL-2 (liver fibrosis, KD 30 mg/kg): 93.91 ± 2.05^##ΔΔ pg/mL
- IL-10 (liver fibrosis, KD 30 mg/kg): 140.44 ± 7.64 pg/mL
- IL-12 (liver fibrosis, KD 30 mg/kg): 242.08 ± 5.44 pg/mL
- NO (liver fibrosis, KD 30 mg/kg): 59.06 ± 1.40 µmol/L
- TNF-α (liver fibrosis, KD 30 mg/kg): 2.38 ± 0.57 pg/mL
- fiber formation (Masson staining) (mouse, in vivo): had inhibitory effect on the fiber formation
- oxidative stress injuries (MDA, SOD) (mouse, in vivo): could reverse these oxidative stress injuries
- secretion of ALT, AST and inflammatory cytokines (mouse, in vivo): did not affect the secretion of ALT, AST and inflammatory cytokines
- shear wave velocity of SWE (liver) (mouse, in vivo): could significantly reduce the shear wave velocity
